± gives the expanded uncertainty stated by the source.
Legend:
[1] = 298.15 K; 101.33 kPa; Liquid; Pycnometric method
[2] = refractive index (Na D-line) (dimensionless); details: 298.15 K; 101.33 kPa; Liquid; Standard Abbe refractometry
[3] = excess molar enthalpy (molar enthalpy of mixing); xn = mol fraction of the nth substance listed; details: 298.15 K, 101 kPa, Liquid
[4] = xn = mol fraction of the nth substance listed; details: 303.15 K, 101 kPa, Liquid, Direct dilatometry

CC(C)CCO [3-methylbutan-1-ol]
Details	mass density [kg/m3]	refractive index
[1]	801.76 ± 0.79	–
[2]	–	1.4053 ± 0.0008

CC(C)CO [2-methyl-1-propanol]
Details	mass density [kg/m3]	refractive index
[1]	794.34 ± 0.78	–
[2]	–	1.3939 ± 0.0008

CC(C)O [propan-2-ol]
Details	mass density [kg/m3]	refractive index
[1]	776.88 ± 0.76	–
[2]	–	1.375 ± 0.0008

CCC(C)O (stereo not given) [butan-2-ol]
Details	mass density [kg/m3]	refractive index
[1]	798.92 ± 0.79	–
[2]	–	1.3954 ± 0.0008

CC(C)(C)O [2-methylpropan-2-ol]
Details	mass density [kg/m3]	refractive index
[1]	776.16 ± 0.76	–
[2]	–	1.3851 ± 0.0008

CC(C)(C)O [2-methylpropan-2-ol] + CN1CCCC1=O
Details	excess molar enthalpy [kcal/mol]	excess molar volume [m3/mol]
[3], x2 = 0.0634	0.0223 ± 0.00143	–
[3], x2 = 0.1313	0.0597 ± 0.00263	–
[3], x2 = 0.2034	0.094 ± 0.00382	–
[3], x2 = 0.2666	0.117 ± 0.00454	–
[3], x2 = 0.3319	0.135 ± 0.00526	–
[3], x2 = 0.3942	0.145 ± 0.0055	–
[3], x2 = 0.4382	0.142 ± 0.0055	–
[3], x2 = 0.4828	0.14 ± 0.0055	–
[3], x2 = 0.5381	0.137 ± 0.00526	–
[3], x2 = 0.6026	0.128 ± 0.00502	–
[3], x2 = 0.6733	0.112 ± 0.00454	–
[3], x2 = 0.7442	0.0971 ± 0.00406	–
[3], x2 = 0.829	0.0662 ± 0.00287	–
[3], x2 = 0.9194	0.0342 ± 0.00179	–
[4], x2 = 0.1121	–	-3.2e-08 ± 6e-09
[4], x2 = 0.2423	–	-8.4e-08 ± 6e-09
[4], x2 = 0.3215	–	-1.16e-07 ± 6e-09
[4], x2 = 0.4128	–	-1.36e-07 ± 6e-09
[4], x2 = 0.4601	–	-1.52e-07 ± 6e-09
[4], x2 = 0.5403	–	-1.48e-07 ± 6e-09
[4], x2 = 0.6359	–	-1.42e-07 ± 6e-09
[4], x2 = 0.7246	–	-1.18e-07 ± 6e-09
[4], x2 = 0.8032	–	-9e-08 ± 6e-09
[4], x2 = 0.8404	–	-6.4e-08 ± 6e-09
[4], x2 = 0.9238	–	-2.6e-08 ± 6e-09

CN1CCCC1=O [N-methylpyrrolidone]
Details	mass density [kg/m3]	refractive index
[1]	1023.4 ± 1.1	–
[2]	–	1.4674 ± 0.0008

CN1CCCC1=O [N-methylpyrrolidone] + CCC(C)O
Details	excess molar enthalpy [kcal/mol]	excess molar volume [m3/mol]
[3], x1 = 0.0691	0.0413 ± 0.00201	–
[3], x1 = 0.1595	0.0937 ± 0.00382	–
[3], x1 = 0.2388	0.123 ± 0.00478	–
[3], x1 = 0.3106	0.134 ± 0.00526	–
[3], x1 = 0.3733	0.14 ± 0.0055	–
[3], x1 = 0.4822	0.136 ± 0.00526	–
[3], x1 = 0.5305	0.131 ± 0.00502	–
[3], x1 = 0.5614	0.124 ± 0.00478	–
[3], x1 = 0.6341	0.109 ± 0.0043	–
[3], x1 = 0.7217	0.0872 ± 0.00359	–
[3], x1 = 0.8176	0.0598 ± 0.00263	–
[3], x1 = 0.9067	0.0327 ± 0.00174	–
[4], x1 = 0.1046	–	-6.5e-08 ± 6e-09
[4], x1 = 0.1831	–	-1.26e-07 ± 6e-09
[4], x1 = 0.249	–	-1.62e-07 ± 6e-09
[4], x1 = 0.3096	–	-1.93e-07 ± 6e-09
[4], x1 = 0.3777	–	-2.19e-07 ± 6e-09
[4], x1 = 0.4817	–	-2.38e-07 ± 6e-09
[4], x1 = 0.5739	–	-2.3e-07 ± 6e-09
[4], x1 = 0.6355	–	-2.16e-07 ± 6e-09
[4], x1 = 0.7494	–	-1.64e-07 ± 6e-09
[4], x1 = 0.8086	–	-1.36e-07 ± 6e-09
[4], x1 = 0.9142	–	-6.4e-08 ± 6e-09

CN1CCCC1=O [N-methylpyrrolidone] + CC(C)O
Details	excess molar enthalpy [kcal/mol]	excess molar volume [m3/mol]
[3], x1 = 0.0516	0.0709 ± 0.00311	–
[3], x1 = 0.1082	0.137 ± 0.00526	–
[3], x1 = 0.1702	0.19 ± 0.00717	–
[3], x1 = 0.2279	0.223 ± 0.00837	–
[3], x1 = 0.2894	0.24 ± 0.00884	–
[3], x1 = 0.3471	0.248 ± 0.00908	–
[3], x1 = 0.4059	0.246 ± 0.00908	–
[3], x1 = 0.4562	0.238 ± 0.00884	–
[3], x1 = 0.595	0.174 ± 0.00669	–
[3], x1 = 0.6888	0.147 ± 0.00574	–
[3], x1 = 0.7874	0.113 ± 0.00454	–
[3], x1 = 0.892	0.0648 ± 0.00287	–
[4], x1 = 0.1498	–	-5.2e-08 ± 6e-09
[4], x1 = 0.2066	–	-7.8e-08 ± 6e-09
[4], x1 = 0.3202	–	-1.29e-07 ± 6e-09
[4], x1 = 0.4317	–	-1.57e-07 ± 6e-09
[4], x1 = 0.5027	–	-1.62e-07 ± 6e-09
[4], x1 = 0.5854	–	-1.66e-07 ± 6e-09
[4], x1 = 0.7216	–	-1.42e-07 ± 6e-09
[4], x1 = 0.8148	–	-1.06e-07 ± 6e-09
[4], x1 = 0.9062	–	-5.8e-08 ± 6e-09

CC(C)CCO [3-methylbutan-1-ol] + CN1CCCC1=O
Details	excess molar enthalpy [kcal/mol]	excess molar volume [m3/mol]
[3], x2 = 0.0777	0.0394 ± 0.00196	–
[3], x2 = 0.149	0.0727 ± 0.00311	–
[3], x2 = 0.2286	0.101 ± 0.00406	–
[3], x2 = 0.3011	0.112 ± 0.00454	–
[3], x2 = 0.3692	0.12 ± 0.00478	–
[3], x2 = 0.4301	0.119 ± 0.00478	–
[3], x2 = 0.4847	0.116 ± 0.00454	–
[3], x2 = 0.5348	0.113 ± 0.00454	–
[3], x2 = 0.5484	0.114 ± 0.00454	–
[3], x2 = 0.5792	0.108 ± 0.0043	–
[3], x2 = 0.6031	0.103 ± 0.00406	–
[3], x2 = 0.6712	0.0904 ± 0.00359	–
[3], x2 = 0.744	0.0778 ± 0.00335	–
[3], x2 = 0.8153	0.0615 ± 0.00263	–
[3], x2 = 0.8821	0.0416 ± 0.00203	–
[3], x2 = 0.9444	0.0212 ± 0.00139	–
[4], x2 = 0.0999	–	-7.8e-08 ± 6e-09
[4], x2 = 0.2737	–	-1.69e-07 ± 6e-09
[4], x2 = 0.3718	–	-1.97e-07 ± 6e-09
[4], x2 = 0.4155	–	-2.09e-07 ± 6e-09
[4], x2 = 0.5254	–	-2.01e-07 ± 6e-09
[4], x2 = 0.6399	–	-1.76e-07 ± 6e-09
[4], x2 = 0.7034	–	-1.49e-07 ± 6e-09
[4], x2 = 0.8699	–	-7.3e-08 ± 6e-09
[4], x2 = 0.9384	–	-3.6e-08 ± 6e-09

CC(C)CO [2-methyl-1-propanol] + CN1CCCC1=O
Details	excess molar enthalpy [kcal/mol]	excess molar volume [m3/mol]
[3], x2 = 0.051	0.0366 ± 0.00186	–
[3], x2 = 0.1288	0.0654 ± 0.00287	–
[3], x2 = 0.2035	0.085 ± 0.00359	–
[3], x2 = 0.2736	0.0939 ± 0.00382	–
[3], x2 = 0.3385	0.0957 ± 0.00382	–
[3], x2 = 0.3939	0.0938 ± 0.00382	–
[3], x2 = 0.4477	0.0902 ± 0.00359	–
[3], x2 = 0.4974	0.0863 ± 0.00359	–
[3], x2 = 0.543	0.0817 ± 0.00335	–
[3], x2 = 0.6198	0.0645 ± 0.00287	–
[3], x2 = 0.6816	0.0585 ± 0.00263	–
[3], x2 = 0.748	0.0524 ± 0.00239	–
[3], x2 = 0.8179	0.0474 ± 0.00222	–
[3], x2 = 0.8911	0.0354 ± 0.00184	–
[3], x2 = 0.9686	0.0224 ± 0.00143	–
[4], x2 = 0.1356	–	-9.8e-08 ± 6e-09
[4], x2 = 0.2201	–	-1.47e-07 ± 6e-09
[4], x2 = 0.2921	–	-1.74e-07 ± 6e-09
[4], x2 = 0.4102	–	-2.06e-07 ± 6e-09
[4], x2 = 0.5144	–	-2.26e-07 ± 6e-09
[4], x2 = 0.5994	–	-2.32e-07 ± 6e-09
[4], x2 = 0.6915	–	-2.21e-07 ± 6e-09
[4], x2 = 0.8044	–	-1.86e-07 ± 6e-09
[4], x2 = 0.9237	–	-9.6e-08 ± 6e-09
